In patent US20070043034A1, “Chlorine Ion Uptake Modulators and Uses Thereof” (priority 2005, published 2007):

Key:
[1] = biological target: T1, NKCCl (Rattus norvegicus, UniProt E9PTX9); assay: Reversal potential of stimulus-evoked GABAA-PSCs in immature CA3 pyramidal cells; format: cell-based
T1 construct: gramicidin perforated patch clamped CA1 pyramidal neuron in an acute hippocampal slice from a P5 rat; from tissue; host or cells: acute hippocampal slices of P3-P6 male Sprague-Dawley rats; CA1 pyramidal neurons
T1 sequence (E9PTX9 1-1203): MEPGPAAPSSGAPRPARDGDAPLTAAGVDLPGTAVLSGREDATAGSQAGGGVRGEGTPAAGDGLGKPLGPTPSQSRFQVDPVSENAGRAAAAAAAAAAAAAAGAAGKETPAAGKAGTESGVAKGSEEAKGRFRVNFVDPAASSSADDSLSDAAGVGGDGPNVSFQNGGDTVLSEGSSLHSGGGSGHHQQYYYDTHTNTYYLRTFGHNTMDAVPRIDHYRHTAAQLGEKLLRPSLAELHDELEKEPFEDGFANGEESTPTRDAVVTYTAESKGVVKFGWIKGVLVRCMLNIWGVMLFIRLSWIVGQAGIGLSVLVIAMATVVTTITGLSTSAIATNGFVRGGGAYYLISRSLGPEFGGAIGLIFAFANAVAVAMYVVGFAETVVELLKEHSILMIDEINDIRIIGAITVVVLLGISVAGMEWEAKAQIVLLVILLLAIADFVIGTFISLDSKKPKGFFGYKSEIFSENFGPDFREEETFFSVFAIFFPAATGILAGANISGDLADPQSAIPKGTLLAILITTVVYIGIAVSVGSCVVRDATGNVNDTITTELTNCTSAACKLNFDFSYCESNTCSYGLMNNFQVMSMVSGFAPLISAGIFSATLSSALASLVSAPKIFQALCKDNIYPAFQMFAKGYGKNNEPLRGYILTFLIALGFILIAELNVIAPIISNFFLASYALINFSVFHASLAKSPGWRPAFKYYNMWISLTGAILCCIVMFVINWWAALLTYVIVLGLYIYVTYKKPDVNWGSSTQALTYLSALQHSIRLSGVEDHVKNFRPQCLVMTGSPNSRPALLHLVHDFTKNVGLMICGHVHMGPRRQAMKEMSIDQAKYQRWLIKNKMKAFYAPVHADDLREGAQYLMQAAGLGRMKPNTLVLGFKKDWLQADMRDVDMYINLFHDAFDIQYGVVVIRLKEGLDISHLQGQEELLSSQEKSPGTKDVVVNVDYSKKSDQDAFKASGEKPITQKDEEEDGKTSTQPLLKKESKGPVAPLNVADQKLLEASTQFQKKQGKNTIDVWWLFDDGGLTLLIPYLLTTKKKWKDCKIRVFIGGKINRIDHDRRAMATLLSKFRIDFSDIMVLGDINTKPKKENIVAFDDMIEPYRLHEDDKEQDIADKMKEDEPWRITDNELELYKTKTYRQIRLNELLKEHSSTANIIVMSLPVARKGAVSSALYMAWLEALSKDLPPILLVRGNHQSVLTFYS
Method: Cell cultures, such as pyramidal cells, can be used to examine the effects of a pharmaceutical composition of the present invention on GABAA receptor activation. In one exemplary method, selective inhibition of NKCCl by a pharmaceutical composition of the present invention, bumetanide, was tested to examine the relationship between chloride accumulation in neurons, GABAA receptor activation and NKCC1. Specifically, the reversal potential of electrical stimulus evoked GABAA-receptor mediated post-synaptic currents (GABAA-PSCS) in immature P4-P6 CA3 pyramidal cells of the hippocampus was examined in the presence or absence of bumetanide. Electrical stimulation of the stratum radiatum (7 V, 30 us duration) evoked in control conditions a synaptic response that reversed at −42.4±1.7 mV (n=6) and was close to the reversal potential of spontaneous GABAA-PSCS (−46.1±0.7 mV; n=6, p=0.07). Examples of stimulus evoked postsynaptic currents at different holding potentials for individual pyramidal cell and corresponded current-voltage (I-V) relationship are shown in FIG. 1A. […] In presence of bumetanide, stimulus evoked GABAA-PSCs reversed at −46.1±1.9 mV (n=6, p=0.17). […] This in vitro system can be used to test any of the pharmaceutical compositions of the present invention for modulation of GABAA receptor activation. […]

[2] = system: spontaneous network activity in hippocampal sections; assay: Spontaneous network activity in P4-8 hippocampal sections (whole-cell and extracellular field recordings); format: cell-based, rat
Method: In another exemplary in vitro method, simultaneous whole-cell voltage-clamp recordings of CA3 pyramidal cells and extracellular field potential recordings in CA3 pyramidal cell layer were performed to analyze the effects of one of the pharmaceutical compositions of the present invention, bumetanide, on spontaneous network activity in the postnatal (P)4-8 hippocampal sections. Spontaneous neuronal network activity is characterized by large polysynaptic currents mediated by activation of GABAA-receptors and synchronous recurrent population bursts, associated with a barrage of high frequency action potentials from multiple cells (FIG. 1C). […] Synchronous network activity reappeared 10-15 min after removal of bumetanide by washing.
In one exemplary method, experimental procedures were carried out on hippocampal slices of postnatal days 5 (P5) to P12 male Wistar rats. Animals were anaesthetized and decapitated and hippocampal slices were prepared by known methods. […]
From the example outlined above, extracellular field potentials were recorded and microelectrodes known in the art were used for simultaneous recordings of multiple unit activity (e.g. MUA; 500 Hz high-pass filter), population field activity in EEG band (1-100 Hz), and fast ripple oscillations (200-600 Hz).).

- shift in reversal potential of GABAA-PSCs ([1]; bumetanide 10 μM application): negative shift
- reversal potential of stimulus evoked GABAA-PSCs ([1]; bumetanide 10 μM, P4-P6 CA3 pyramidal cells, n=6, p=0.17, control −42.4±1.7 mV): −46.1±1.9 mV
Structure (SMILES): CCCCNc1cc(C(=O)O)cc(S(N)(=O)=O)c1Oc1ccccc1 [bumetanide, 3-(aminosulfonyl)-5-(butylamino)-4-phenoxybenzoic acid]
- time until synchronous network activity reappeared after removal by washing ([2]; after bumetanide 10 uM): 10 to 15 min
- synchronous bursts of action potentials ([2]; bath application 10 uM, P4-8 hippocampal sections, n=10): rapidly depressed
